Columns and labels:
human recombinant COX-2 = molecular target: T1, human recombinant COX-2 (Homo sapiens, UniProt P35354); assay: COX-2 inhibitory activity, colourimetric COX inhibitor screening assay kit; type: biochemical
T1 construct: purchased
T1 sequence (P35354 18-604): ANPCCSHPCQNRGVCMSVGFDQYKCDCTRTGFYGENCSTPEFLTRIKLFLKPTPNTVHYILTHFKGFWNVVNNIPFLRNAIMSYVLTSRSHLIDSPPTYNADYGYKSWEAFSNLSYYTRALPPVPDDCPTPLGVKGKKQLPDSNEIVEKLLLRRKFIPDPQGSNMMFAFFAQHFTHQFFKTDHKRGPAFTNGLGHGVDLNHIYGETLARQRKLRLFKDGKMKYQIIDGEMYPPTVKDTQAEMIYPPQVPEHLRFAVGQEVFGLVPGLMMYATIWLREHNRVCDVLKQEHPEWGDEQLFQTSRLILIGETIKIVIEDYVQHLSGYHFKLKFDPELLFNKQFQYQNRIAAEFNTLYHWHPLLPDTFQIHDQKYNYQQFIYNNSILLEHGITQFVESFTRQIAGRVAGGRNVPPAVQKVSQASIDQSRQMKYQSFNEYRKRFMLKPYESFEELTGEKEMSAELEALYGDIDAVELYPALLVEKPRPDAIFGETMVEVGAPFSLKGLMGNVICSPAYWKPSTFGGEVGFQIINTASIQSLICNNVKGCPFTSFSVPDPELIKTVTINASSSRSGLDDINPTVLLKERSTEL
Description: The inhibitory COX activity was assayed colourimetrically by examining the inhibition of the ovine COX-1 and human recombinant COX-2 enzymes as described by George et al.[38], using a COX inhibitor screening assay kit. The detailed procedures were described in the supplementary file.
The inhibitory COX activity was assayed colourimetrically by examining the inhibition of the ovine COX-1 and human recombinant COX-2 enzymes as described by George et al. ^2, using a COX inhibitory screening assay kit. This assay determines the COX peroxidase activity by monitoring the appearance of N,N,N',N'-tetramethyl-p-phenylenediamine (TMPD). Assay buffer (150 μL 0.1 M Tris–HCl pH 8.0), 10 μL heme and 10μL enzyme (COX-1 or COX-2) were added in each well. Ten μL of each tested sample concentration was added to each well and incubated for 15 minutes at 37°C. After incubation, 20 μL of TMPD was added to each well. For initiating the reaction, 10 μL 10 mM arachidonic acid was added and the plates were further incubated for another 2 minutes at 37°C. For terminating the reaction, 50 μL 1 N HCl and saturated stannous chloride were added.
Reaction mixture containing assay buffer and heme acted as the blank and a mixture with either COX-1 or COX-2 assay buffer and heme acted as the 100% initial activity (IA). […] The absorbances of oxidized TMPD (blue colour) were read in ELISA plate reader at 590 nm. The % inhibition was calculated using the following formula:
COX % Inhibition= [(100%IA−Inhibitor)/ 100% IA x 100]. Where, IA: 100% initial activity.
The concentration at which the tested sample produces 50% inhibition of COX-1 and/or COX-2 (IC50) was determined. The selectivity index (SI) was calculated also as IC50 (COX-1)/ (COX-2).

[1] = molecular target: T2, H. pylori inosine-5′-monophosphate dehydrogenase (HpIMPDH) (Helicobacter pylori, UniProt P56088); assay: In vitro HpIMPDH inhibition assay (NADH fluorescence); type: biochemical; design: HpIMPDH inhibitory activity: unit not given here
T2 sequence (P56088 1-481): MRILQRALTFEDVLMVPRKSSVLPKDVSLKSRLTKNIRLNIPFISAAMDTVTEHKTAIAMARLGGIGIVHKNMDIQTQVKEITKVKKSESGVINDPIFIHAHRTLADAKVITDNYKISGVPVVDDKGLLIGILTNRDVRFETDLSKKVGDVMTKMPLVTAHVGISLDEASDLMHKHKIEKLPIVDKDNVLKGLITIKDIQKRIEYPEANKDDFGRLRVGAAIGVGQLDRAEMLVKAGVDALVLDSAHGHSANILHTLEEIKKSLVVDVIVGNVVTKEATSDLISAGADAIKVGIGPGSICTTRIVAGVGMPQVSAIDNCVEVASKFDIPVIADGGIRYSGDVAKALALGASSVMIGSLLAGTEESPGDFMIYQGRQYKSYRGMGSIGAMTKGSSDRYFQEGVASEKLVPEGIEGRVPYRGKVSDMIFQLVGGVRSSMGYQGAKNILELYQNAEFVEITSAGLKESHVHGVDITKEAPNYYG
Description: The assay was carried out according to Galal[40] and was described in detail in the supplementary file.
Thus, irigenin was selected to test its HpIMPDH inhibitory activity by monitoring NADH production at concentration range of 10–0.078 µM compared to clarithromycin as standard drug. Also, to examine irigenin selectivity toward the bacterial IMPDH, human hIMPDH2 inhibition potential was assayed.
The assay was carried out in a final volume of two hundred μL in black 96-well plate (Tarsons Products Pvt. Ltd., Kolkata, India) with a reaction buffer composed of one hundred mM KCl, fifty mM Tris–HCl (pH 8.6), and one mM dithiothreitol (DTT). One hundred nM H. pylori inosine-5′-monophosphate dehydrogenase (HpIMPDH) in the presence/absence of the tested compound were used. The assay mixture was then incubated at 37 °C for 10 min, and the reaction was initiated by the adding 250 μM of inosine 5ʹ‐monophosphate (IMP) and 300 μM of nicotinamide adenine dinucleotide (NAD^+) substrate buffer. The assay was allowed to proceed for 45 min at 37 °C.
The formed NADH was measured by recording the fluorescence (excitation 340 nm, emission 440 nm) using PerkinElmer EnVision Multilabel Reader (Waltham, MA) at an interval of one min. DMSO and clarithromycin were used as vehicle control and positive control, respectively. The concentration of the tested sample leading to 50% HpIMPDH inhibition (IC50) was estimated.

**Q.** Which IC50 (human recombinant COX-2; human recombinant COX-2) does the source give for `COc1cc(-c2coc3cc(O)c(OC)c(O)c3c2=O)cc(O)c1OC` [Irigenin (P3), 3′,5,7-trihydroxy-4′,5′,6 trimethoxyisoflavone] here?
**A.** Its IC50 is 10.8 ± 0.86 µM.

**Q.** And the “SI (COX-1/COX-2)” value (human recombinant COX-2; selectivity index calculated as IC50 (COX-1)/(COX-2))?
**A.** The value was 3.26.

**Q.** What about the IC50 [1] of the same molecule?
**A.** Its IC50 is 2.07 ± 1.9 µM.

**Q.** What about the HpIMPDH inhibitory activity ([1]; sample conc. 0.078 (range 10–0.078 µM)) of the same molecule?
**A.** The HpIMPDH inhibitory activity was 0.00.

**Q.** And the HpIMPDH inhibitory activity ([1]; sample conc. 0.156 (range 10–0.078 µM))?
**A.** Its HpIMPDH inhibitory activity is 0.00.

**Q.** And the HpIMPDH inhibitory activity ([1]; sample conc. 0.313 (range 10–0.078 µM))?
**A.** Its HpIMPDH inhibitory activity is 6.14 ± 1.90.

**Q.** And the HpIMPDH inhibitory activity ([1]; sample conc. 0.625 (range 10–0.078 µM))?
**A.** Its HpIMPDH inhibitory activity is 10.25 ± 2.80.

**Q.** What about the HpIMPDH inhibitory activity ([1]; sample conc. 1.25 (range 10–0.078 µM)) of the same molecule?
**A.** Its HpIMPDH inhibitory activity is 24.19 ± 1.70.

**Q.** And the HpIMPDH inhibitory activity ([1]; sample conc. 2.5 (range 10–0.078 µM))?
**A.** The HpIMPDH inhibitory activity was 59.31 ± 1.40.

**Q.** What about the HpIMPDH inhibitory activity ([1]; sample conc. 5 (range 10–0.078 µM)) of the same molecule?
**A.** Its HpIMPDH inhibitory activity is 71.08 ± 1.30.

**Q.** What about the HpIMPDH inhibitory activity ([1]; sample conc. 10 (range 10–0.078 µM)) of the same molecule?
**A.** Its HpIMPDH inhibitory activity is 83.25 ± 0.58.

Reference: publication PMC9259591, “Irigenin, a novel lead from Iris confusa for management of Helicobacter pylori infection with selective COX-2 and HpIMPDH inhibitory potential” (Scientific Reports, 2022)
